In patent US20120165576A1, “USE OF ERYTHRITOL FOR THE PREVENTION OR TREATMENT OF HYPERTENSION” (priority 2009, published 2012):
“Also recorded” adds a separate entry of the source. Where two headings read alike, the source gives them in different places. Marks after values point to notes of the source that are not given here.

Experiments:
[1] = system: red blood cell suspension; assay: AAPH-induced hemolysis of a red blood cell suspension; format: cell-based; settings: erythritol 0-50 mM, AAPH 50 mM, 37° C., FIG. 3
[2] = cited from earlier work
[3] = cited from earlier work; remark: listed apart in the source
[4] = system: manganese superoxide dismutase (SOD2); assay: SOD2 expression in endothelial cells by qPCR; format: cell-based; settings: human umbilical vein endothelial cells (CRL-1730), erythritol 5 mM, 24 hours
Method: The exposure of endothelial cells to erythritol results in a increase in manganese superoxide dismutase (SOD2) transcription (FIG. 4). Cultured human umbilical vein endothelial cells (CRL-1730, which are available from ATCC) were incubated under standard conditions with erythritol (5 mM, 24 hours). Exposure to erythritol induced or stimulated a 9.4 fold increase in the expression of SOD2 as determined by qPCR (FIG. 4).
After incubation, RNA was isolated from Qiazol suspended cells according to the manufacturer's protocol and quantified using a nanodrop. Reverse transcription reaction was performed using 500 ng of total RNA, which was reverse-transcribed into cDNA using iScript™ cDNA synthesis kit. Next, real time PCR was performed with a BioRad MyiQ iCycler Single Color RT-PCR detection system using Sensimix™ Plus SYBR and Fluorescein, 5 μl diluted (10×) cDNA, and 0.3 μM primers in a total volume of 25 μl. PCR was conducted as follows: denaturation at 95° C. for 3 minutes, followed by 40 cycles of 95° C. for 15 seconds and 60° C. for 45 seconds. After PCR a melt curve (60-95° C.) was produced for product identification and purity. β-actin was included as internal control. Data were analysed using the MyIQ software system (Biorad) and were expressed as relative gene expression (fold change) using the 2^ΔΔCt method.

[5] = system: sections of thoracic aorta (aortic rings); assay: Aorta reactivity measurements: isolated aortic rings of rats after 21 days of erythritol in drinking water; format: in vivo, Wistar rats; settings: for CAR: relaxation induced by 100 μM carbachol / PE: Contraction induced by 10 μM phenylephrine / SNP: Relaxation induced by 100 μM SNP after stable response to 100 μM carbachol / Tot. relax: Relaxation induced by 100 μM carbachol followed by 100 μM SNP / SNP fraction: Contribution of 100 μM SNP to the total relaxation: 1 g erythritol/kg/day in drinking water, 21 days, mean ± SEM
[6] = clinical testing, oral consumption
[7] = group DE: STZ diabetic rats, N = 4
[8] = group NE: normoglycemic rats, N = 5

In the case of `OCC(O)C(O)CO` (stereo not shown) [erythritol, 1,2,3,4-butanetetrol], the “Inhibition of AAPH-induced hemolysis (in words)” value [1] is listed as “inhibited hemolysis in a concentration-dependent manner”, the “Lagtime (t50, time to reach 50% hemolysis) of AAPH-induced hemolysis (in words)” value [1] is listed as “concentration-dependently shifted the curve to the right; also recorded: concentration-dependent increase” and the “Time until excretion with the urine is complete” value ([2]; after administration) is listed as “about 3 days”. The “Systemic metabolism (in words)” value ([2]; in vivo) was “not systemically metabolized”, the “Absorption from the gut (in words)” value ([2]; oral) was “rapidly and virtually completely absorbed” and the “Well tolerated bolus (single) dose” value [3, 6] was “up to 50 grams”. The “Well tolerated daily dose” value [3, 6] was “up to 80 grams”, the “Well tolerated bolus (single) dose” value ([3]; clinical testing, oral consumption, listed as Erythritol) was no more than 50 grams and the “Digestive side-effects (in words)” value ([3]; even after consumption of large quantities) was “no digestive side-effects”. For the same molecule, the “Increase in the expression of SOD2 as determined by qPCR” value [4] was 9.4 fold, the “Relaxation response of aortic rings to carbachol (in words)” value ([5]; diabetic rats consuming erythritol (DE), 1 g/kg/day, compared with normoglycemic rats) was “essentially the same as the relaxation response of normoglycemic rats; also recorded: identical to that observed in the normoglycemic rats; also recorded: higher and at the same level as found in the aortic rings of the rats of groups N and NE” and the “CAR: relaxation induced by 100 μM carbachol” value [5, 7] was 0.61 ± 0.07 g. For the same molecule, the “PE: Contraction induced by 10 μM phenylephrine” value [5, 7] was 0.60 ± 0.07 g, the “SNP: Relaxation induced by 100 μM SNP after stable response to 100 μM carbachol” value [5, 7] was 0.14 ± 0.03 g and the “Tot. relax: Relaxation induced by 100 μM carbachol followed by 100 μM SNP” value [5, 7] was 0.75 ± 0.09 g. The “SNP fraction: Contribution of 100 μM SNP to the total relaxation” value ([5]; group DE: STZ diabetic rats, N = 4, p < 0.05 compared to D) was 17.8 ± 3.1^b %, the “CAR: relaxation induced by 100 μM carbachol” value [5, 8] was 0.60 ± 0.07 g and the “PE: Contraction induced by 10 μM phenylephrine” value [5, 8] was 0.70 ± 0.06 g. For the same molecule, the “SNP fraction: Contribution of 100 μM SNP to the total relaxation” value [5, 8] was 24.7 ± 5.5^ %, the “SNP: Relaxation induced by 100 μM SNP after stable response to 100 μM carbachol” value [5, 8] was 0.21 ± 0.06 g and the “Tot. relax: Relaxation induced by 100 μM carbachol followed by 100 μM SNP” value [5, 8] was 0.81 ± 0.09 g. The “Effect on carbachol concentration-response curve (in words)” value ([5]; normoglycemic rats consuming erythritol (NE), 1 g/kg/day, FIG. 1) was “did not have a significant effect”.
